# Experimental data from PubChem BioAssay AID2060906 (Molecular Pharmacology Branch, DTP, NCI, 2025).
# Tested on: 485176-168-R4-J1-PDC complex spheroid growth
# Test: Anticancer human tumor 485176-168-R4-J1-PDC patient-derived pancreatic adenocarcinoma cell line growth inhibition [RAS]
# Settings: for IC50: curve of first compound; for viability, T/C: stronger effect = lower value
# In short: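 Agents were tested in combination matrices in half-log decrements from a top concentration at or near clinical Cmax (10 microM if undetermined). Targets were multi-cell spheroids of tumour lines plus HUVEC and MSC stromal cells.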
# [1] = second compound 0.000949 µM, first compound 0.0316 µM
# [2] = second compound 0.000949 µM, first compound 0.1 µM
# [3] = second compound 0.000949 µM, first compound 0.316 µM
# [4] = second compound 0.000949 µM, first compound 1 µM
# [5] = second compound 0.000949 µM, first compound 3.16 µM
# [6] = second compound 0.000949 µM, first compound 10 µM
# [7] = second compound 0.003 µM, first compound 0.0316 µM
# [8] = second compound 0.003 µM, first compound 0.1 µM
# [9] = second compound 0.003 µM, first compound 0.316 µM
# [10] = second compound 0.003 µM, first compound 1 µM
# [11] = second compound 0.003 µM, first compound 3.16 µM
# [12] = second compound 0.003 µM, first compound 10 µM
# [13] = second compound 0.00949 µM, first compound 0.0316 µM
# [14] = second compound 0.00949 µM, first compound 0.1 µM
# [15] = second compound 0.00949 µM, first compound 0.316 µM
# [16] = second compound 0.00949 µM, first compound 1 µM
# [17] = second compound 0.00949 µM, first compound 3.16 µM
# [18] = second compound 0.00949 µM, first compound 10 µM
# [19] = second compound 0.03 µM, first compound 0.0316 µM
# [20] = second compound 0.03 µM, first compound 0.1 µM
# [21] = second compound 0.03 µM, first compound 0.316 µM
# [22] = second compound 0.03 µM, first compound 1 µM
# [23] = second compound 0.03 µM, first compound 3.16 µM
# [24] = second compound 0.03 µM, first compound 10 µM
# [25] = second compound 0.0949 µM, first compound 0.0316 µM
# [26] = second compound 0.0949 µM, first compound 0.1 µM
# [27] = second compound 0.0949 µM, first compound 0.316 µM
# [28] = second compound 0.0949 µM, first compound 1 µM
# [29] = second compound 0.0949 µM, first compound 3.16 µM
# [30] = second compound 0.0949 µM, first compound 10 µM
# [31] = second compound 0.3 µM, first compound 0.0316 µM
# [32] = second compound 0.3 µM, first compound 0.1 µM
# [33] = second compound 0.3 µM, first compound 0.316 µM
# [34] = second compound 0.3 µM, first compound 1 µM
# [35] = second compound 0.3 µM, first compound 3.16 µM
# [36] = second compound 0.3 µM, first compound 10 µM
# 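Note: spheroids exposed to compounds for seven days before readout.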
# 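Throughout, for viability, T/C: luminescence viability expressed relative to DMSO vehicle wells set as 100%.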
smiles,measurement,setting,value
CC1(O)CCCC1n1c(=O)c(C(F)F)cc2cnc(NC3CCN(S(C)(=O)=O)CC3)nc21 (centres undefined) + CCn1c(-c2cccnc2C(C)OC)c2c3cc(ccc31)N1CCOC(CC(NC(=O)C(C(C)C)N(C)C(=O)C3(F)CCN(C(=O)C#CC(C)(C)N(C)C)CC3)C(=O)N3CCCC(N3)C(=O)OCC(C)(C)C2)C1,IC50,second compound 0.000949 µM,3410 nM
same,IC50,second compound 0.003 µM,3170 nM
same,IC50,second compound 0.00949 µM,3390 nM
same,IC50,second compound 0.03 µM,3310 nM
same,IC50,second compound 0.0949 µM,3320 nM
same,IC50,second compound 0.3 µM,1680 nM
same,"viability, T/C",[1],114%
same,"viability, T/C",[2],75%
same,"viability, T/C",[3],70.6%
same,"viability, T/C",[4],78.2%
same,"viability, T/C",[5],60.8%
same,"viability, T/C",[6],4.58%
same,"viability, T/C",[7],103%
same,"viability, T/C",[8],92.7%
same,"viability, T/C",[9],76.6%
same,"viability, T/C",[10],72.8%
same,"viability, T/C",[11],57%
same,"viability, T/C",[12],3.48%
same,"viability, T/C",[13],90.4%
same,"viability, T/C",[14],74.7%
same,"viability, T/C",[15],60.6%
same,"viability, T/C",[16],69.8%
same,"viability, T/C",[17],57%
same,"viability, T/C",[18],3.15%
same,"viability, T/C",[19],110%
same,"viability, T/C",[20],78.7%
same,"viability, T/C",[21],87.2%
same,"viability, T/C",[22],65.9%
same,"viability, T/C",[23],63.5%
same,"viability, T/C",[24],2.51%
same,"viability, T/C",[25],89.2%
same,"viability, T/C",[26],76.2%
same,"viability, T/C",[27],69.6%
same,"viability, T/C",[28],68.1%
same,"viability, T/C",[29],56.1%
same,"viability, T/C",[30],2.02%
same,"viability, T/C",[31],78.7%
same,"viability, T/C",[32],70.5%
same,"viability, T/C",[33],58.1%
same,"viability, T/C",[34],54.6%
same,"viability, T/C",[35],47.8%
same,"viability, T/C",[36],3.3%
CCC(CC)c1cc(NC2CCC(N)C2)n2nccc2n1 (centres undefined) + CCn1c(-c2cccnc2C(C)OC)c2c3cc(ccc31)N1CCOC(CC(NC(=O)C(C(C)C)N(C)C(=O)C3(F)CCN(C(=O)C#CC(C)(C)N(C)C)CC3)C(=O)N3CCCC(N3)C(=O)OCC(C)(C)C2)C1,IC50,second compound 0.000949 µM,1260 nM
same,IC50,second compound 0.003 µM,1440 nM
same,IC50,second compound 0.00949 µM,1270 nM
same,IC50,second compound 0.03 µM,1080 nM
same,IC50,second compound 0.0949 µM,1010 nM
same,IC50,second compound 0.3 µM,521 nM
same,"viability, T/C",[1],94.6%
same,"viability, T/C",[2],117%
same,"viability, T/C",[3],86%
same,"viability, T/C",[4],64.1%
same,"viability, T/C",[5],2.09%
same,"viability, T/C",[6],0.42%
same,"viability, T/C",[7],105%
same,"viability, T/C",[8],104%
same,"viability, T/C",[9],100%
same,"viability, T/C",[10],72.1%
same,"viability, T/C",[11],2.19%
same,"viability, T/C",[12],0.46%
same,"viability, T/C",[13],88.4%
same,"viability, T/C",[14],79.7%
same,"viability, T/C",[15],98.8%
same,"viability, T/C",[16],62.6%
same,"viability, T/C",[17],2.5%
same,"viability, T/C",[18],0.59%
same,"viability, T/C",[19],96%
same,"viability, T/C",[20],105%
same,"viability, T/C",[21],95.9%
same,"viability, T/C",[22],53.7%
same,"viability, T/C",[23],2.5%
same,"viability, T/C",[24],0.41%
same,"viability, T/C",[25],87%
same,"viability, T/C",[26],77.3%
same,"viability, T/C",[27],94.2%
same,"viability, T/C",[28],50.3%
same,"viability, T/C",[29],2.64%
same,"viability, T/C",[30],0.46%
same,"viability, T/C",[31],82.9%
same,"viability, T/C",[32],72.8%
same,"viability, T/C",[33],64.5%
same,"viability, T/C",[34],32.7%
same,"viability, T/C",[35],2.76%
same,"viability, T/C",[36],0.53%
